Source: patent US20040116299A1, “Phthalamide derivates, insecticides for agricultural and horticultural use and method for application thereof” (priority 2001, published 2004)

Assays:
Assay type in all cases: in vivo
[1] = tested on: diamondback moth (Plutella xylostella); test: Test Example 3: controlling effect on diamondback moth by soil treatment for cabbage (planting-hole granules); conditions: 20 mgAI/plant granules in planting hole; for Number of parasites/3 plants After 18 days: 18 days after trans-planting; for Number of parasites/3 plants After 25 days: 25 days after trans-planting; for Number of parasites/3 plants After 32 days: 32 days after trans-planting; for Number of parasites/3 plants After 42 days: 42 days after trans-planting
Method: Controlling effect on diamondback moth (Plutella xylostella) by soil treatment for cabbage At the time of trans-planting cabbage plants (cultivar: YR Seitoku), planting holes were treated with granules prepared from the compound listed in Table 1 or 2 according to Formulation Example. Diamondback moths parasitic on the cabbage plants were counted on predetermined days after the trans-planting. In Table 4, mgAI/plant denotes the dosage (mg) of the active ingredient per plant.

[2] = tested on: Common Cutworm (Spodoptera litura); test: Test Example 2: insecticidal effect on common cutworm, cabbage leaf dip, second-instar larvae; conditions: cabbage leaf immersed about 30 seconds, counted eight days after inoculation, 25° C.; for mortality at 5 ppm / mortality at 50 ppm: Spodoptera litura, foliar, 192 h, read-out: Test Example 2 insecticidal effect (mortality criterion)
From the text: Insecticidal Effect on Common Cutworm (Spodoptera litura)
A piece of cabbage leaf (cultivar; Shikidori) was immersed for about 30 seconds in a liquid chemical prepared by diluting a preparation containing each compound listed in Table 1 or 2 as an active ingredient to adjust the prescribed concentration. After air-dryness, it was placed in a plastic Petri dish with a diameter of 9 cm and inoculated with second-instar larvae of common cutworm, after which the dish was closed and then allowed to stand in a room thermostatted at 25° C. Eight days after the inoculation, the dead and alive were counted. The mortality was calculated according to the following equation and the insecticidal effect was judged according to the criterion shown in Test Example 1. The test was carried out with triplicate groups of 10 insects. [formula]

[3] = tested on: Diamond Back Moth (Plutella xylostella); test: Test Example 1: insecticidal effect on diamond back moth, immersion of Chinese cabbage seedling bearing eggs; conditions: seedling with eggs immersed about 30 seconds, counted six days after immersion, 25° C.; for mortality at 5 ppm / mortality at 50 ppm: Plutella xylostella, 144 h, read-out: Test Example 1 insecticidal effect (mortality criterion)
From the text: Insecticidal Effect on Diamond Back Moth (Plutella xylostella)
Adult diamond back moths were released and allowed to oviposit on a Chinese cabbage seedling. Two days after the release, the seedling having the eggs deposited thereon was immersed for about 30 seconds in a liquid chemical prepared by diluting a preparation containing each compound listed in Table 1 or 2 as an active ingredient to adjust the prescribed concentration. After air-dryness, it was allowed to stand in a room thermostatted at 25° C. Six days after the immersion, the hatched insects were counted. The mortality was calculated according to the following equation and the insecticidal effect was judged according to the criterion shown below. The test was carried out with triplicate groups of 10 insects. [formula]
The compounds described in JP-A-2001-131141 were used as comparative compounds as follows: […]

| SMILES | Number of parasites/3 plants After 18 days [1] [parasites/3 plants] | Number of parasites/3 plants After 25 days [1] [parasites/3 plants] | Number of parasites/3 plants After 32 days [1] [parasites/3 plants] | Number of parasites/3 plants After 42 days [1] [parasites/3 plants] | mortality at 5 ppm [2] [%] | mortality at 50 ppm ([2]; 50 ppm) [%] | mortality at 5 ppm ([3]; 5 ppm) [%] | mortality at 50 ppm ([3]; 50 ppm) [%] | Test Example 2 insecticidal effect (mortality criterion) ([2]; 50 ppm) | Test Example 1 insecticidal effect (mortality criterion) ([3]; 50 ppm) | Test Example 1 insecticidal effect (mortality criterion) ([3]; 5 ppm) |
| --- | --- | --- | --- | --- | --- | --- | --- | --- | --- | --- | --- |
| CSCC(C)NC(=O)c1cccc(I)c1C(=O)Nc1ccc(Cl)cc1C (stereo not shown) [A, N^2-(4-chloro-2-methylphenyl)-3-iodo-N^1-(1-methyl-2-methylthioethyl)phthalamide, reference compound] | 8 | 75 | 143 | 146 | 0 to 49 | 0 to 49 | 0 to 49 | 100 | – | – | – |
| CSCC(C)(C)NC(=O)c1c(I)cccc1C(=O)Nc1ccc(Cl)c(C(F)(F)F)c1Cl [compound 142] | – | – | – | – | – | – | – | – | A (Mortality 100%) | A (Mortality 100%) | – |
| Cc1cc(I)ccc1NC(=O)c1cccc(I)c1C(=O)NC(C)(C)CS(C)(=O)=O [compound 32, N^2-(1,1-dimethyl-2-methylsulfonylethyl)-3-iodo-N^1-(4-iodo-2-methylphenyl)phthalamide] | – | – | – | – | 0 to 49 | 100 | 100 | 100 | – | – | – |
| CSCC(C)(C)NC(=O)c1c(I)cccc1C(=O)Nc1ccc(I)cc1C [compound 30, N^2-(1,1-dimethyl-2-methylthioethyl)-3-iodo-N^1-(4-iodo-2-methylphenyl)phthalamide] | 0 | 9 | 19 | 37 | 0 to 49 | 100 | 100 | 100 | – | – | – |
| Cc1cc(Cl)ccc1NC(=O)c1cccc(I)c1C(=O)NC(C)(C)C[S+](C)[O-] (stereo not shown) [compound 25] | 0 | 0 | 6 | 22 | – | – | – | – | – | – | – |
| CCSCC(C)NC(=O)c1cccc(I)c1C(=O)Nc1ccc(Cl)cc1C (stereo not shown) [B, N^2-(4-chloro-2-methylphenyl) -3-iodo-N^1-(2-ethylthio-1-methylethyl)phthalamide, reference compound] | – | – | – | – | 0 to 49 | 0 to 49 | 0 to 49 | 100 | – | – | – |
| Cc1cc(I)ccc1NC(=O)c1cccc(I)c1C(=O)NC(C)(C)C[S+](C)[O-] (stereo not shown) [compound 31, N^2-(1,1-dimethyl-2-methylsulfinylethyl)-3-iodo-N^1-(4-iodo-2-methylphenyl)phthalamide] | – | – | – | – | 0 to 49 | 100 | 100 | 100 | – | – | – |
| CC(C)(CS(C)(=O)=O)NC(=O)c1c(I)cccc1C(=O)Nc1ccc(Cl)cc1Cl [compound 101] | – | – | – | – | – | – | – | – | – | A (Mortality 100%) | A (Mortality 100%) |
| Cc1cc(Br)ccc1NC(=O)c1cccc(I)c1C(=O)NC(C)(C)C[S+](C)[O-] (stereo not shown) [compound 28] | 0 | 7 | 23 | 59 | – | – | – | – | – | – | – |
